Assay results from ChEMBL document CHEMBL4808211, “Exploration and Biological Evaluation of Basic Heteromonocyclic Propanamide Derivatives as SARDs for the Treatment of Enzalutamide-Resistant Prostate Cancer” (J Med Chem, 2021).

System: MR49F
Test: animal or person
Conditions: Mus musculus, po, 672 h, read-out: TGI
Description: Antitumor activity against human MR49F cells xenografted in NOD SCID NSG mouse assessed as tumor growth inhibition at 60 mg/kg/day, po measured twice weekly for 28 days relative to control

SMILES: C[C@](O)(Cn1cc(-c2ccc(F)cc2)nn1)C(=O)Nc1ccc(C#N)c(C(F)(F)F)c1
- inhibition in vivo at 60 mg/kg/day: 95%
